This passage reports DC50 results from patent US11530222B2, “Substituted pyrrolopyrimidine and pyrazolopyrimidine as Bruton's tyrosine kinase (BTK) degraders” (ACCUTAR BIOTECHNOLOGY INC., priority 2021, dated 2022).

Usually DC50 stands for the midpoint of the concentration-degradation curve.

T1 sequence (Q06187 whole entry): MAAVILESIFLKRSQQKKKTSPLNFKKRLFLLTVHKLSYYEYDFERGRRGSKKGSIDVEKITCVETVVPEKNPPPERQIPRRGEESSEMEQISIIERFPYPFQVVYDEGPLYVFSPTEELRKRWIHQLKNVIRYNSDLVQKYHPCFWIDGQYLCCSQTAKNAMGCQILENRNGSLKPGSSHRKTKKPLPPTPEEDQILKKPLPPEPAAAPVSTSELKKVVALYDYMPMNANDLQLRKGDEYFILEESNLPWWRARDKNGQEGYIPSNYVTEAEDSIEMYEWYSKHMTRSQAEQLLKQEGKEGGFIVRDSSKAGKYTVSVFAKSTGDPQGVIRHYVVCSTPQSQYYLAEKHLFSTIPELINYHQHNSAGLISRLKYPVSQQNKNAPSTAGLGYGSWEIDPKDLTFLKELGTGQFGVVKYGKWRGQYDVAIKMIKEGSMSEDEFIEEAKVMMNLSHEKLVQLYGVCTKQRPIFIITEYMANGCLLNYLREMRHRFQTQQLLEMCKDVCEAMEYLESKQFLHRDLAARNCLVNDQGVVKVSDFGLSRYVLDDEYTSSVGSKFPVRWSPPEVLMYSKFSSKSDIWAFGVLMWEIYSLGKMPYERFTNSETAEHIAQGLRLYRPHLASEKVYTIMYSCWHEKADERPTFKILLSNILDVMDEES

The assay concerns the target T1, BTK (Homo sapiens, UniProt Q06187).
T1 construct: BTK Degradative Activity of Exemplary Compounds of the Present Disclosure in a RAMOS Cell Line; host or cells: RAMOS
The assay can be described thus: BTK degradative activity in a RAMOS cell line (Western blot). Conditions: 6 hours after administration, read-out: RAMOS BTK Degradation DC50. Type of assay: cell-based. As to the method: RAMOS (ATCC) cells were plated in 24-well plates at 8×10^5 cells/well in the RPMI growth medium containing 10% heat-inactivated FBS and 1× Penicillin Streptomycin, and then incubated at 37° C. overnight. The following day, the test compound was administered to the cells by using 1000× compound stock solution prepared in DMSO at various concentrations. After administration of the compound, the cells were then incubated at 37° C. for 6 hours.
Upon completion, the cells were collected by centrifugation and lysed in Laemmli sample buffer (1×; VWR International). Proteins in cell lysate were separated by SDS-PAGE and transferred to Odyssey nitrocellulose membranes (Licor) with Iblot® dry blotting transfer system (ThermoFisher). Nonspecific binding was blocked by incubating membranes with Intercept Blocking Buffer (Licor) for 1 hour at room temperature with gentle shaking. The membranes were then incubated overnight at 4° C. with primary antibodies anti-BTK (Cell signaling, cat. #8547) and anti-GAPDH (Cell signaling, cat. #5179) diluted in Intercept Blocking Buffer containing 0.1% Tween 20. After washing 3 times with TBS-T, the membranes were incubated with IRDye® 800CW goat anti-mouse IgG (1:20,000, Licor) or IRDye® 800CW goat anti-rabbit IgG (1:20,000, Licor) for 1 hour. After TBS-T washes, membranes were rinsed in TBS and scanned on Odyssey® CLx Imaging System (Licor). The bands were quantified using Image Studio™ Software (Licor).
Table 3 summarizes the BTK degradative activity of exemplary compounds of the present disclosure in a RAMOS cell line 6 hours after administration. The DC50 values (i.e., the concentration of test compound at which 50% of the target protein is degraded) were calculated. A designation of “A” corresponds to a DC50 value less than 10 nM. A designation of “B” corresponds to a DC50 value greater than or equal to 10 nM and less than 100 nM. A designation of “C” corresponds to a DC50 value greater than or equal to 100 nM.
For orientation: In western blotting, separated proteins are transferred to a membrane and probed.
With `O=C1CCC(N2C(=O)c3ccc(N4CCN(CCCC(=O)N5CCC[C@@H](Nc6ncnc7[nH]cc(C(=O)c8ccc(Oc9ccccc9)cc8Cl)c67)C5)CC4)cc3C2=O)C(=O)N1` (stereo partly drawn) [Compound 19, 5-(4-(4-((R)-3-((5-(2-chloro-4-phenoxybenzoyl)-7H-pyrrolo[2,3-d]pyrimidin-4-yl)amino)piperidin-1-yl)-4-oxobutyl)piperazin-1-yl)-2-(2,6-dioxopiperidin-3-yl)isoindoline-1,3-dione], the DC50 lay within 10 to 100 nM.

With `O=C1CCC(N2C(=O)c3ccc(N4CCN(CCCCCCCN5CCC(Nc6ncnc7[nH]cc(C(=O)c8ccc(Oc9ccccc9)cc8Cl)c67)CC5)CC4)cc3C2=O)C(=O)N1` (centres unmarked) [Compound 12, 5-(4-(7-(4-((5-(2-chloro-4-phenoxybenzoyl)-7H-pyrrolo[2,3-d]pyrimidin-4-yl)amino)piperidin-1-yl)heptyl)piperazin-1-yl)-2-(2,6-dioxopiperidin-3-yl)isoindoline-1,3-dione], the DC50 fell in the range of 10 to 100 nM.

For `O=C1CCC(N2C(=O)c3ccc(N4CCN(CCCCN5CCC(Nc6ncnc7[nH]cc(C(=O)c8ccc(Oc9ccccc9)cc8Cl)c67)CC5)CC4)cc3C2=O)C(=O)N1` (centres unmarked) [Compound 27, 5-(4-(4-(4-((5-(2-chloro-4-phenoxybenzoyl)-7H-pyrrolo[2,3-d]pyrimidin-4-yl)amino)piperidin-1-yl)butyl)piperazin-1-yl)-2-(2,6-dioxopiperidin-3-yl)isoindoline-1,3-dione], the DC50 is 10 to 100 nM.

Take `O=C1CCC(N2C(=O)c3ccc(N4CCN(CCCCC(=O)N5CCC[C@@H](Nc6ncnc7[nH]cc(C(=O)c8ccc(Oc9ccccc9)cc8Cl)c67)C5)CC4)cc3C2=O)C(=O)N1` (stereo partly drawn) [Compound 11, 5-(4-(5-((R)-3-((5-(2-chloro-4-phenoxybenzoyl)-7H-pyrrolo[2,3-d]pyrimidin-4-yl)amino)piperidin-1-yl)-5-oxopentyl)piperazin-1-yl)-2-(2,6-dioxopiperidin-3-yl)isoindoline-1,3-dione]: the DC50 was 10 to 100 nM.

In the case of `O=C1CCC(N2Cc3c(C#CCCCCCC(=O)N4CCC(Nc5ncnc6[nH]cc(C(=O)c7ccc(Oc8ccccc8)cc7Cl)c56)CC4)cccc3C2=O)C(=O)N1` (centres unmarked) [Compound 40, 3-(4-(8-(4-((5-(2-chloro-4-phenoxybenzoyl)-7H-pyrrolo[2,3-d]pyrimidin-4-yl)amino)piperidin-1-yl)-8-oxooct-1-yn-1-yl)-1-oxoisoindolin-2-yl)piperidine-2,6-dione], the DC50 is ≥ 100 nM.

`COc1ccc(C(=O)N2CCN(CCCCC(=O)N3CCC(Nc4ncnc5[nH]cc(C(=O)c6ccc(Oc7ccccc7)cc6Cl)c45)CC3)CC2)cc1N1CCC(=O)NC1=O` [Compound 72, 1-(5-(4-(5-(4-((5-(2-chloro-4-phenoxybenzoyl)-7H-pyrrolo[2,3-d]pyrimidin-4-yl)amino)piperidin-1-yl)-5-oxopentyl)piperazine-1-carbonyl)-2-methoxyphenyl)dihydropyrimidine-2,4(1H,3H)-dione]: the DC50 was ≥ 100 nM.

In the case of `COc1ccc(C(=O)N2CCC(N3CCC(CC(=O)N4CCC[C@@H](Nc5ncnc6[nH]cc(C(=O)c7ccc(Oc8ccccc8)cc7Cl)c56)C4)CC3)CC2)cc1N1CCC(=O)NC1=O` [Compound 77, (R)-1-(5-(4-(2-(3-((5-(2-chloro-4-phenoxybenzoyl)-7H-pyrrolo[2,3-d]pyrimidin-4-yl)amino)piperidin-1-yl)-2-oxoethyl)-[1,4′-bipiperidine]-1′-carbonyl)-2-methoxyphenyl) dihydropyrimidine-2,4(1H,3H)-dione], the DC50 is ≥ 100 nM.

Take `O=C1CCC(N2C(=O)c3ccc(N4CCN(C5CC(CC(=O)N6CCC[C@@H](Nc7ncnc8[nH]cc(C(=O)c9ccc(Oc%10ccccc%10)cc9Cl)c78)C6)C5)CC4)cc3C2=O)C(=O)N1` (stereo partly drawn) [Compound 43, 5-(4-(3-(2-((R)-3-((5-(2-chloro-4-phenoxybenzoyl)-7H-pyrrolo[2,3-d]pyrimidin-4-yl)amino)piperidin-1-yl)-2-oxoethyl)cyclobutyl)piperazin-1-yl)-2-(2,6-dioxopiperidin-3-yl)isoindoline-1,3-dione]: the 50% degradation concentration (DC50) was < 10 nM.

With `O=C1CC[C@H](N2Cc3cc(N4CCN(CC5CCN(c6ccc(Nc7ncnc8[nH]cc(C(=O)c9ccc(Oc%10ccccc%10)cc9Cl)c78)cc6F)CC5)CC4)ccc3C2=O)C(=O)N1` [Compound 46, (S)-3-(5-(4-((1-(4-((5-(2-chloro-4-phenoxybenzoyl)-7H-pyrrolo[2,3-d]pyrimidin-4-yl)amino)-2-fluorophenyl)piperidin-4-yl)methyl)piperazin-1-yl)-1-oxoisoindolin-2-yl)piperidine-2,6-dione], the DC50 was ≥ 100 nM.

On to `O=C1CCC(N2C(=O)c3ccc(N4CCN(CCC5CCN(c6ccc(Nc7ncnc8[nH]cc(C(=O)c9ccc(Oc%10ccccc%10)cc9Cl)c78)cc6F)CC5)CC4)cc3C2=O)C(=O)N1` (centres unmarked) [Compound 44, 5-(4-(2-(1-(4-((5-(2-chloro-4-phenoxybenzoyl)-7H-pyrrolo[2,3-d]pyrimidin-4-yl)amino)-2-fluorophenyl)piperidin-4-yl)ethyl)piperazin-1-yl)-2-(2,6-dioxopiperidin-3-yl)isoindoline-1,3-dione], for which the DC50 was ≥ 100 nM.

Take `O=C1CCC(N2C(=O)c3ccc(OCCCCCN4CCN(c5ccc(C(=O)N6CCC[C@@H](Nc7ncnc8[nH]cc(C(=O)c9ccc(Oc%10ccccc%10)cc9Cl)c78)C6)cn5)CC4)cc3C2=O)C(=O)N1` (stereo partly drawn) [Compound 6, 5-((5-(4-(5-((R)-3-((5-(2-chloro-4-phenoxybenzoyl)-7H-pyrrolo [2,3-d]pyrimidin-4-yl)amino)piperidine-1-carbonyl)pyridin-2-yl)piperazin-1-yl)pentyl)oxy)-2-(2,6-dioxopiperidin-3-yl)isoindoline-1,3-dione]: the DC50 was ≥ 100 nM.

On to `O=C1CC[C@H](N2C(=O)c3ccc(N4CCN(CCCCCCC(=O)N5CCC(Nc6ncnc7[nH]cc(C(=O)c8ccc(Oc9ccccc9)cc8Cl)c67)CC5)CC4)cc3C2=O)C(=O)N1` [Compound 22, 5-(4-(7-(4-((5-(2-chloro-4-phenoxybenzoyl)-7H-pyrrolo[2,3-d]pyrimidin-4-yl)amino)piperidin-1-yl)-7-oxoheptyl)piperazin-1-yl)-2-(2,6-dioxopiperidin-3-yl)isoindoline-1,3-dione], for which the DC50 lay within 10 to 100 nM.

As to `O=C1CCC(N2C(=O)c3ccc(N4CCN(c5ccc(C(=O)N6CCC[C@@H](Nc7ncnc8[nH]cc(C(=O)c9ccc(Oc%10ccccc%10)cc9Cl)c78)C6)cn5)CC4)cc3C2=O)C(=O)N1` (stereo partly drawn) [Compound 2, 5-(4-(5-((R)-3-((5-(2-chloro-4-phenoxybenzoyl)-7H-pyrrolo[2,3-d]pyrimidin-4-yl)amino)piperidine-1-carbonyl)pyridin-2-yl)piperazin-1-yl)-2-(2,6-dioxopiperidin-3-yl)isoindoline-1,3-dione], the DC50 was ≥ 100 nM.

Consider `COc1ccc(C(=O)N2CCN(CCCCCC(=O)N3CCC(Nc4ncnc5[nH]cc(C(=O)c6ccc(Oc7ccccc7)cc6Cl)c45)CC3)CC2)cc1N1CCC(=O)NC1=O` [Compound 71, 1-(5-(4-(6-(4-((5-(2-chloro-4-phenoxybenzoyl)-7H-pyrrolo[2,3-d]pyrimidin-4-yl)amino)piperidin-1-yl)-6-oxohexyl)piperazine-1-carbonyl)-2-methoxyphenyl) dihydropyrimidine-2,4(1H,3H)-dione], for which the DC50 was 10 to 100 nM.

As for `COc1ccc(C(=O)N2CCC(N3CCC(CC(=O)N4CCC(Nc5ncnc6[nH]cc(C(=O)c7ccc(Oc8ccccc8)cc7Cl)c56)CC4)CC3)CC2)cc1N1CCC(=O)NC1=O` [Compound 73, 1-(5-(4-(2-(4-((5-(2-chloro-4-phenoxybenzoyl)-7H-pyrrolo[2,3-d]pyrimidin-4-yl)amino)piperidin-1-yl)-2-oxoethyl)-[1,4′-bipiperidine]-1′-carbonyl)-2-methoxyphenyl)dihydropyrimidine-2,4(1H,3H)-dione], the 50% degradation concentration (DC50) was in the range of 10 to 100 nM.

As for `O=C1CCC(N2C(=O)c3ccc(N4CCN(CCCCCN5CCC(Nc6ncnc7[nH]cc(C(=O)c8ccc(Oc9ccccc9)cc8Cl)c67)CC5)CC4)cc3C2=O)C(=O)N1` (centres unmarked) [Compound 34, 5-(4-(5-(4-((5-(2-chloro-4-phenoxybenzoyl)-7H-pyrrolo[2,3-d]pyrimidin-4-yl)amino)piperidin-1-yl)pentyl)piperazin-1-yl)-2-(2,6-dioxopiperidin-3-yl)isoindoline-1,3-dione], the DC50 is < 10 nM.

For `O=C1CCC(N2C(=O)c3ccc(N4CCN(CCCC(=O)N5CCC(Nc6ncnc7[nH]cc(C(=O)c8ccc(Oc9ccccc9)cc8Cl)c67)CC5)CC4)cc3C2=O)C(=O)N1` (centres unmarked) [Compound 23, 5-(4-(4-(4-((5-(2-chloro-4-phenoxybenzoyl)-7H-pyrrolo[2,3-d]pyrimidin-4-yl)amino)piperidin-1-yl)-4-oxobutyl)piperazin-1-yl)-2-(2,6-dioxopiperidin-3-yl)isoindoline-1,3-dione], the DC50 lay in the range of 10 to 100 nM.
